# Test results taken from the METLIN SMRT retention time set (Domingo-Almenara et al. 2019).
# Assay: gradient 5% acetonitrile 3 min, to 50% in 2 min, to 85% in 15 min, held 3 min, 100 µL/min
# Settings: column: Zorbax Extend-C18 2.1 x 50 mm; eluents: water / acetonitrile, 0.1% formic acid
# Method in brief: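 Retention times come from adduct peaks that were picked computationally and then checked by hand. The standards, pure and pooled in mixtures of ~100 molecules, were run on a Zorbax Extend-C18 column (2.1 × 50 mm, 1.8 μm) at 100 μL/min with water and acetonitrile, each with 0.1% formic acid. Detection was by quadrupole time-of-flight mass spectrometry in positive and negative ionization mode, with a dead volume of 40 μL and a dwell volume of 900 μL.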
row,SMILES,RP-LC retention time
1,COc1cc(NC(=O)N2CCCC2c2cccc(F)c2)cc(OC)c1OC (centres undefined),848 s
2,CC(=O)N1CCN(c2nc3c(s2)CC(C(=O)N2CCCCC2)CC3)CC1 (centres undefined),548 s
3,COc1ccc(NC(=O)Cn2c(=O)n(-c3ccc(F)cc3)c(=O)c3c2cc(C)n3C)cc1OC,739 s
4,O=C(NCC1CCOCC1)c1c[nH]c2ccccc12,636 s
5,CCc1nc2cc(-c3noc(-c4cccc(OC)c4OC)n3)ccc2o1,1130 s
6,CCc1ccc(OCc2nc(C)c(C(=O)Nc3nc(-c4ccc(OC)cc4)cs3)s2)cc1,1290 s
7,COc1ccc(Cn2nc3ccc(S(=O)(=O)N4CCOCC4)cn3c2=O)cc1F,811 s
8,COc1ccc(-c2nc3sc(C(=O)N(C)C)c(C)n3c2NC(C)(C)C)cc1,742 s
9,COc1ccc(C(=O)N2C[C@@H](Oc3cccnc3)C[C@H]2C(=O)NC2CC2)c(OC)n1,602 s
10,Cc1ccc(F)c(NC(=O)C2CCc3nc(N4CCOCC4)ncc3C2)c1 (centres undefined),735 s
11,CN1C(=O)C2(CCN(C(=O)NC3CCCCC3)CC2)c2ccccc21,807 s
12,CCN1C(=O)C(C)(C(=O)Nc2ccc(C)cc2C)Oc2cccnc21 (centres undefined),744 s
13,COc1ccc(S(=O)(=O)N2CCc3c(c(-c4nnc(-c5ccccc5)o4)nn3C)C2)cc1,909 s
14,O=C(NC1CCCCC1)C1CCN(c2cnn(Cc3ccccc3)c(=O)c2)CC1,793 s
15,O=C(Nc1ccsc1-c1nnc(C2CC2)o1)c1ccoc1,1080 s
16,COc1ccccc1Cc1noc(C2CN(C(=O)c3cc(C4CC4)on3)C2)n1,876 s
17,Cc1cc(C(=O)NCC(C)C)c2cc(Cl)ccc2n1,784 s
18,COc1ccc(-c2noc(C3CCCN3C(=O)c3cc(Cl)ccc3OC)n2)cc1 (centres undefined),1020 s
19,Cc1ccc(F)cc1S(=O)(=O)N1CCC(C2CCNC2)CC1 (centres undefined),651 s
20,Cc1ccc2oc(-c3nnc(C(=O)NCCN4CCCCCC4)o3)c(C)c2c1,720 s

row,SMILES,RP-LC retention time
1,CS(=O)(=O)Nc1ccc2oc3c(OC(F)F)ccc(C(=O)Nc4c(Cl)cncc4Cl)c3c2c1,967 s
2,COc1ccccc1N1CCN(C(=O)c2cc(S(=O)(=O)N3CCCCC3)cn2C)CC1,893 s
3,CCOC(=O)c1cc2ccsc2n1CC(=O)NCCN1CCN(C)CC1,600 s
4,CC1=C(c2ccccc2)S(=O)(=O)N=C1N1CCCN(C(=O)c2ccc(C#N)cc2)CC1,777 s
5,CCNC(=O)N1CCCC(c2cccc(C(=O)NCC3CCCCC3)c2)C1 (centres undefined),891 s
6,COc1ccc(F)cc1S(=O)(=O)Nc1ccc(CC(=O)NCC(F)(F)F)cc1,869 s
7,CCn1ccc2sc(C)c(C(=O)NCc3ccccc3Br)c2c1=O,926 s
8,COc1ccc(Cl)cc1NC(=O)c1c(C)oc2c1C1=NCCN1C=N2,674 s
9,Cc1oc(-c2[nH]ncc2C(=O)N(C)C)cc1S(=O)(=O)N1CCC(C)CC1,710 s
10,Cc1ccc(-c2csc(-n3nc(C)c(CC(=O)N4CCCC4)c3C)n2)cc1,1090 s
11,CN(Cc1ccccc1)C(=O)CN1C(=O)C2CCCCN2c2ccc(S(=O)(=O)N3CCCC3)cc21 (centres undefined),987 s
12,CCOC(=O)c1c(NCCC(C)C)c2ccc(Cl)cc2[nH]c1=O,900 s
13,CCc1nn2c(CNC(=O)Cc3ccc(OC)cc3Cl)c(C)nc2s1,670 s
14,CCCS(=O)(=O)c1ccc(NCc2ccc(OC)c(OC)c2)nn1,706 s
15,O=C(C1=COCCO1)N1CCN(c2ccccc2)CC1,694 s
16,Cc1noc(-c2ccc(-n3cnc(C(=O)NC4CCCCCC4)c3)nc2)n1,896 s
17,Cc1ccc(C)c(NC(=O)c2cn(-c3ncccc3-c3nc(C(C)C)no3)cn2)c1,1010 s
18,CC(=O)Nc1ccc(CCc2nc3ccc(C(=O)NCc4cccc(Br)c4)cc3[nH]2)cc1,669 s
19,CSc1ccc(CNC(=O)C2CCN(c3cc(=O)n(C)c(=O)n3C)CC2)cc1,694 s
20,C=C(C)COc1ccc2oc(C)c(C(=O)O)c2c1,879 s

row,SMILES,RP-LC retention time
1,Cc1ccc(NS(=O)(=O)c2cc3n(c2)CCCN(C(C)C)C3=O)cc1,778 s
2,CCc1nc2cc(-c3noc(-c4ccc(OC)cc4OC)n3)ccc2o1,1080 s
3,Cc1ccc(NC(=O)C(C)Oc2cc(C(F)(F)F)c3c(C)nn(C)c3n2)cc1C (centres undefined),586 s
4,CCn1c(CNC(=O)C2CCC2)nc2c1CN(C(=O)c1ccc(OC)cc1)CC2,612 s
5,Cc1cnc(-c2cccnc2)n1C1CCN(S(=O)(=O)c2ccc3c(c2)OCCO3)C1 (centres undefined),633 s
6,COc1cccc(C(=O)Nc2nc(-c3ccc4c(c3)N(C)C(=O)CO4)c(C)s2)c1,978 s
7,O=C(NC1CCCC1)C1CCCN(C(=O)c2ccc(F)c(F)c2)C1 (centres undefined),763 s
8,Cc1c(Cl)cccc1S(=O)(=O)N1CCC2(CC1)OCCS2,1050 s
9,COC(=O)c1ccc(NC(=O)Cn2nc3nc(N4CCCCC4C)ccn3c2=O)cc1 (centres undefined),778 s
10,COc1ccc(-n2ccc(=O)c(-c3nc(-c4cccc(OC)c4OC)no3)n2)cc1,824 s
11,COc1ccc(C2(C(=O)N3CC(c4noc(COc5ccc(F)cc5)n4)C3)CC2)cc1,974 s
12,Cn1nc(Br)nc1Sc1ccccc1NC(=O)C1CC1,763 s
13,NC1N=C(c2ccccc2)c2ccccc2NC1=O (centres undefined),568 s
14,COc1ccc(NC(=O)Cn2ccnc2-c2ccnc(N3CCSCC3)c2)cc1OC,619 s
15,COC(=O)c1c(C)[nH]c(C(=O)N2CCCC(C(=O)N3CCN(c4cc(C)ccc4C)CC3)C2)c1C (centres undefined),961 s
16,Cn1c(=O)n(CCN2CCOCC2)c(=O)c2c1nc1n2CCCN1c1ccccc1,615 s
17,CCCS(=O)(=O)N1CCc2ccc(NC(=O)c3cccn(C)c3=O)cc2C1,731 s
18,O=C(NCCCN1CCOCC1)C1CCCN(c2nc3ccccc3n(Cc3ccccc3)c2=O)C1 (centres undefined),720 s
19,CCOC(=O)N1CCN(Cc2nc(-c3ccc(N4CCCC4)nc3)no2)CC1,604 s

# The remaining lines, values ahead:
row,RP-LC retention time,SMILES
1,837 s,O=C(Nc1cccc(Cl)c1)C1CCN(C(=O)C2Sc3ccccc3NC2=O)CC1 (centres undefined)
2,1020 s,COCCCn1c(=O)c2ccccc2n(Cc2nc(-c3ccccc3C)no2)c1=O
3,869 s,Cc1nc2c(ccc3nc(NC(=O)c4ccccc4Br)sc32)s1
4,638 s,CC(NC(=O)CSc1nnc2c3ccccc3nc(-c3ccco3)n12)c1nc2ccccc2[nH]1 (centres undefined)
5,872 s,O=C(Cc1csc2nc(-c3ccccc3)cn12)NCc1cccc(Br)c1
6,697 s,CCC(=O)Nc1ccc(-n2cnc(C(=O)NCc3ccccc3)c2)nc1
7,994 s,Cn1nnc2cc(-c3noc(COc4ccc(Cl)cc4)n3)ccc21
8,1120 s,Fc1ccc(-n2cc(-c3noc(-c4nccc5ccccc45)n3)nn2)cc1
9,630 s,O=C(Cn1c(=O)n(-c2ccccc2)c2ncccc21)NC1CCN(Cc2ccccc2)CC1
10,817 s,CN(CCc1noc(-c2ccc(C(=O)N(C)Cc3ccco3)cc2)n1)C(=O)c1ccccc1
11,769 s,Cc1nc(CCNS(=O)(=O)c2ccc(Cl)cc2)no1
12,796 s,O=C(Nc1ccc(SCC(=O)N2CCN(c3ccccc3)CC2)nn1)c1ccccc1
13,948 s,COC(=O)c1ccccc1Nc1c(-c2ccc(OC)cc2)nc2cnccn12
14,880 s,CN(C)c1ccc(-c2nc3cnccn3c2Nc2ccc(Cl)cc2)cc1
15,724 s,Cc1cccc(-c2ncccc2CNS(=O)(=O)c2cccc(F)c2)c1
16,816 s,Cc1[nH]c2ccccc2c1C(=O)C(=O)Nc1ccccc1
17,1140 s,Clc1nccc2c1ccc1ccccc12
18,554 s,CC1CS(=O)(=O)N(c2ccc(C(=O)N3CCN(c4ccccn4)CC3)cc2)C1=O (centres undefined)
19,1030 s,Cc1ccccc1Nc1c(-c2ccc(Cl)cc2Cl)nc2cnccn12
20,607 s,CN(C)c1ccc(CNC(=O)c2cc3n(n2)CC(C)(C(=O)NCc2ccccc2)N(C)C3=O)cc1 (centres undefined)
21,1300 s,CC(C)Cn1c(=O)c2ccccc2n(Cc2nc(-c3ccc(Br)cc3)no2)c1=O
22,796 s,CCC(C)NC(=O)C1CCN(Cc2cc3ccccc3n2Cc2cccc(Cl)c2)CC1 (centres undefined)
23,870 s,CC(C)NC(=O)c1ccc(OCC2CCN(C(=O)Cc3ccccc3F)CC2)cc1
24,889 s,O=C(Cc1csc2ccccc12)N1CCN(C(=O)Nc2ccccc2Cl)CC1
25,537 s,O=C(Cn1ncccc1=O)N1CCN(c2ccc(-c3ccccn3)nn2)CC1
26,963 s,COc1ccc(-c2nc(-c3cn(Cc4ccc(F)cc4)nn3)no2)cc1
27,704 s,CCOCCCNC(=O)c1ccc(CS(=O)c2ccccc2Cl)o1 (centres undefined)
28,726 s,Cc1ccc(-n2ncc3c(=O)n(Cc4nc(-c5ccc(OC(C)C)cc5)no4)cnc32)cc1Cl
29,990 s,Cc1nc(-c2ccc(-c3noc(CNC(=O)Cc4ccc(Cl)cc4)n3)cc2)cs1
30,581 s,COCCN1C(=O)c2ccccc2C(C(=O)Nc2cccnc2)C1c1cccs1 (centres undefined)
